Laboratory results: patent US7468375B2 (Pfizer Inc., priority 2004, dated 2008)

What was measured:
[1] = target: T1, Full-length wild type HIV-1 integrase (SF1) (Human immunodeficiency virus type 1 group M subtype B, UniProt P04585); assay: Integrase strand-transfer scintillation proximity assay; assay type: biochemical; conditions: strand transfer, 50 min at 37° C., 246 nM integrase, 50 nM host DNA; read-out: IC50
T1 construct: made in house; host or cells: E. coli BL21 (DE3)
In short: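 Recombinant full-length wild-type HIV-1 integrase (aa 1-288), E. coli-expressed, tested on biotinylated pre-processed U5 LTR viral ds-DNA with CA overhang bound to streptavidin SPA beads. [3H]-thymidine-labelled host ds-DNA serves as target; strand transfer read by scintillation proximity. A 3′ di-deoxy viral DNA control checks non-specific binding.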

[2] = tested on: RF strain of HIV-1 in CEM-SS cells; assay: HIV-1 cell protection assay (XTT dye reduction); assay type: cell-based; conditions: Human immunodeficiency virus 1, CEM-SS, 144 h
In short: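 CEM-SS cells infected with HIV-1 RF (moi 0.025–0.819) or mock-infected, 2×10^4 cells/well with half-log compound dilutions for six days. Viability by XTT/PMS reduction (4 h), absorbance 450 nm, as % of uninfected untreated cells. Therapeutic index = CC50/EC50.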

COCCOCc1cn(Cc2ccc(F)cc2F)c2cnc(C(=O)N(C)O)cc12 [Example 123, 1 (2,4-Difluorobenzyl)-N-hydroxy-3-[(2-methoxyethoxy)methyl]-N-methyl-1H-pyrrolo[2,3-c]pyridine-5-carboxamide]
IC50 [1]: 51 nM | EC50 [2]: 519 nM
